Test results: patent publication US20230150981A1, “N-HETEROARYLALKYL-2-(HETEROCYCLYL AND HETEROCYCLYLMETHYL) ACETAMIDE DERIVATIVES AS SSTR4 AGONISTS” (Takeda Pharmaceutical Compnay Limited, priority 2020, published 2023)

Key:
SSTR1 = molecular target: T1, SSTR1 (Homo sapiens, UniProt P30872); assay: SSTR1 I-125 somatostatin competition binding assay for selectivity versus SSTR1 (CHO-K1 membranes); conditions: competition with I-125 somatostatin, membranes from CHO-K1 overexpressing SSTR1; read-out: SSTR1 Binding pIC50 (converted)
T1 construct: purchased Perkin Elmer ES-520-M400UA; host or cells: CHO-K1 membranes
Procedure: SSTR1 I-125 Somatostatin Competition Binding Assay for Selectivity Versus SSTR1
Membranes from CHO-K1 cells overexpressing SSTR1 are purchased from Perkin Elmer (catalog number ES-520-M400UA). Test compounds are suspended in DMSO and then diluted in assay buffer (25 mM HEPES pH 7.4, 10 mM MgCl2, 1 mM CaCl2), 0.5% BSA) plus 0.4 nM I-125 labeled somatostatin (Perkin Elmer catalog number NEX389). Fifty μL of compound/I-125 somatostatin in assay buffer are added per well to 96-well poly-propylene plate. Then 10 μg of SSTR1 membranes in 50 μL assay buffer are added per well. The plate is incubated for 60 minutes at room temperature. FilterMat A filters (Perkin Elmer catalog number 1450-421) are pre-soaked in 0.5% PEI (Sigma catalog number P3143). The contents of the assay plate are transferred to filters with a TomTech harvester and washed 5 times with 20 mM HEPES, 100 mM NaCl. The filters are dried in a microwave oven then transferred to sample bag containing a scintillator sheet (Perkin Elmer catalog number 1450-441). The scintillator sheets are melted to the filters using a heat block. The filters are then read in a MicroBeta scintillation counter. Binding Ki curves are generated using Activity Base for Screening Data Management and the results are reported as pIC50.

SSTR4 [1] = molecular target: T2, SSTR4 (Homo sapiens, UniProt P31391); assay: Inhibition of forskolin stimulated cAMP in CHO-K1 cells overexpressing SSTR4; assay type: cell-based; conditions: read-out: SSTR4 Activity pEC50 (converted)
T2 construct: host or cells: CHO-K1
Procedure, shortened: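 CHO-K1 cells overexpressing SSTR4 treated 30 min at room temperature with compound in Krebs Ringer buffer containing 0.5% BSA, 300 μM IBMX and 350 nM forskolin. Intracellular cAMP measured by HTRF LANCE Ultra (665/615 nm); pEC50 values reported.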

SSTR4 [2] = molecular target: T2, SSTR4; assay: SSTR4 I-125 somatostatin competition binding assay (CHO-K1 membranes); conditions: competition with I-125 somatostatin, membranes from CHO-K1 overexpressing SSTR4; read-out: SSTR4 Binding pIC50 (converted)
Procedure: SSTR4 I-125 Somatostatin Competition Binding Assay
Membranes from CHO-K1 cells overexpressing SSTR4 are purchased from Perkin Elmer (catalog number ES-524-M400UA). Test compounds are suspended in DMSO and then diluted in assay buffer (25 mM HEPES pH 7.4, 10 mM MgCl2, 1 mM CaCl2), 0.5% BSA) plus 0.2 nM I-125 labeled somatostatin (Perkin Elmer catalog number NEX389). Fifty μL of compound/I-125 somatostatin in assay buffer are added per well to 96-well poly-propylene plate. Then 1 μg of SSTR4 membranes in 50 μL assay buffer are added per well. The Plate is incubated for 60 minutes at room temperature. FilterMat A filters (Perkin Elmer catalog number 1450-421) are pre-soaked in 0.5% PEI (Sigma catalog number P3143). The contents of the assay plate are transferred to filters with a TomTech harvester and washed 5 times with 20 mM HEPES, 100 mM NaCl. The filters are dried in a microwave oven then transferred to sample bag containing a scintillator sheet (Perkin Elmer catalog number 1450-441). The scintillator sheets are melted to filters using a heat block. The filters are then read in a MicroBeta scintillation counter. Binding Ki curves are generated using Activity Base for Screening Data Management and the results are reported as pIC50.

T2 sequence (P31391 whole entry): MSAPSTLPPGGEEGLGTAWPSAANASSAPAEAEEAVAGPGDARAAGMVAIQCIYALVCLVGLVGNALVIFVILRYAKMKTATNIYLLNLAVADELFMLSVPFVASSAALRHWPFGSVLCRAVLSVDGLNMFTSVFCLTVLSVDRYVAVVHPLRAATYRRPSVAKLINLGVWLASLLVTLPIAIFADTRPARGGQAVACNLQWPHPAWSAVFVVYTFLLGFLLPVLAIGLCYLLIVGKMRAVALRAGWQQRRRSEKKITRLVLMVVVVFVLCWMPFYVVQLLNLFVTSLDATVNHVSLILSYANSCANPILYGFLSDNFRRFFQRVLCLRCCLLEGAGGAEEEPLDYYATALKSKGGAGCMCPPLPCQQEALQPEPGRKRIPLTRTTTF
T1 sequence (P30872 whole entry): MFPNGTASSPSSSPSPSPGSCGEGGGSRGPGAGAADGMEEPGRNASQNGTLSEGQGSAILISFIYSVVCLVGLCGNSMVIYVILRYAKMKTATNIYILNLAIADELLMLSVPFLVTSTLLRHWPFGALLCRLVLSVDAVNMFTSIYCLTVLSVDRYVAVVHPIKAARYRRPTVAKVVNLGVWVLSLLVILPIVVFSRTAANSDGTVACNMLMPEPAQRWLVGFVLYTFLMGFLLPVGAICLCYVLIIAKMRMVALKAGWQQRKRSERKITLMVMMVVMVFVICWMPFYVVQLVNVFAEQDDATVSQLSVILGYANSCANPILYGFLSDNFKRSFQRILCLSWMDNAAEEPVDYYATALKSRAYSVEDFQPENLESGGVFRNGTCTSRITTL

SMILES	IC50 (SSTR1) [nM]	EC50 (SSTR4 [1]) [nM]	IC50 (SSTR4 [2]) [nM]
C[C@@H](C(=O)NC(C)(C)c1nccc2ccccc12)[C@@H]1CCCN1C (racemic) [Example 110, (R)-N-(2-(isoquinolin-1-yl)propan-2-yl)-2-((S)-1-methylpyrrolidin-2-yl)propanamide and (S)-N-(2-(isoquinolin-1-yl)propan-2-yl)-2-((R)-1-methylpyrrolidin-2-yl)propanamide]	12600	3.98	79.4
C[C@@H](C(=O)NC(C)(C)c1nccc2ccccc12)[C@H]1CCCN1C (racemic) [Example 111, (R)-N-(2-(isoquinolin-1-yl)propan-2-yl)-2-((R)-1-methylpyrrolidin-2-yl)propanamide and (S)-N-(2-(isoquinolin-1-yl)propan-2-yl)-2-((S)-1-methylpyrrolidin-2-yl)propanamide]	3980	3.16	25.1
Cc1cccc2c(C(C)(C)NC(=O)C[C@H]3CCCCN3C)nccc12 (single isomer, unassigned) [Example 8]	3980	2.51	50.1
Cc1cccc2c(C(C)(C)NC(=O)C[C@@H]3CCCCN3C)nccc12 (single isomer, unassigned) [Example 9]	7940	12.6	126
CN1CCCC[C@@H]1CC(=O)NC(C)(C)c1nccc2occc12 (single isomer, unassigned) [Example 14]	25100	6.31	79.4
Cc1cccc2c(C(C)(C)NC(=O)C[C@H]3CCCCN3C)noc12 (single isomer, unassigned) [Example 43]	3980	2	20
Cc1cccc2c(C(C)(C)NC(=O)C[C@@H]3CCCCN3C)noc12 (single isomer, unassigned) [Example 44]	12600	6.31	63.1
COc1ccccc1C(C)(C)NC(=O)[C@H](C)CN1CCCC1 (single isomer, unassigned) [Example 75]	10000	2.51	31.6
Cc1cccnc1OCC1(NC(=O)[C@H](C)[C@@H]2CCCN2C)CC1 (single isomer, unassigned) [Example 127]	7940	7.94	126
CN1CCC[C@H]1CC(=O)NC(C)(C)[C@@H]1CCc2ccccc2O1 (single isomer, unassigned) [Example 128]	10000	39.8	316
CN1CCC[C@@H]1CC(=O)NC(C)(C)[C@@H]1CCc2ccccc2O1 (single isomer, unassigned) [Example 131]	12600	50.1	251
C[C@@H](CN1CCC1)C(=O)NC(C)(C)c1ccccc1Cl (single isomer, unassigned) [Example 134]	6310	1.26	50.1
C[C@H](CN1CCCC1)C(=O)NC(C)(C)c1ccccc1Cl (single isomer, unassigned) [Example 136]	10000	6.31	126
COc1ccc(C(C)(C)NC(=O)[C@H](C)CN2CCC2)cc1 (single isomer, unassigned) [Example 138]	15800	12.6	126
Cc1ccccc1C(C)(C)NC(=O)[C@H](C)CN1CCC1 (single isomer, unassigned) [Example 140]	12600	6.31	50.1
Cc1c(F)cccc1C(C)(C)NC(=O)[C@H](C)CN1CCC1 (single isomer, unassigned) [Example 142]	2000	1.58	15.8
Cc1cccc(C(C)(C)NC(=O)[C@@H](C)CN2CCC2)c1Cl (single isomer, unassigned) [Example 145]	1260	0.794	20
COc1c(C)cccc1C(C)(C)NC(=O)[C@H](C)CN1CCC1 (single isomer, unassigned) [Example 146]	2510	2.51	20
Cc1ccc(C(C)(C)NC(=O)[C@@H](C)CN2CCC2)cc1 (single isomer, unassigned) [Example 149]	6310	3.16	50.1
C[C@@H](CN1CCC1)C(=O)NC1(c2ccccc2F)CC1 (single isomer, unassigned) [Example 151]	7940	7.94	100
C[C@@H](CN1CCC1)C(=O)NC(C)(C)c1cccc(F)c1 (single isomer, unassigned) [Example 153]	6310	3.98	79.4
C[C@@H](CN1CCC1)C(=O)NC(C)(C)c1ccc(Cl)cc1 (single isomer, unassigned) [Example 155]	3160	2.51	39.8
C[C@H](CN1CCC1)C(=O)NC(C)(C)c1ccccc1F (single isomer, unassigned) [Example 156]	20000	7.94	100
O=C(CCN1CCC1)N[C@H](c1cc(F)ccc1F)C(F)F (single isomer, unassigned) [Example 169]	39800	2.51	316

Other lines, results leading:

IC50 (SSTR1) [nM]	EC50 (SSTR4 [1]) [nM]	IC50 (SSTR4 [2]) [nM]	SMILES
3980	2	15.8	COc1c(F)cccc1C(C)(C)NC(=O)[C@H](C)CN1CCC1 (single isomer, unassigned) [Example 171]
31600	20	158	Cc1ccc([C@H](CF)NC(=O)CCN2CCC2)cc1 (single isomer, unassigned) [Example 175]
1580	0.158	6.31	C[C@H](CN1CCC1)C(=O)N[C@H](c1ccccc1)C(F)F (single isomer, unassigned) [Example 181]
1000	1.58	12.6	CC[C@H](CN1CCC1)C(=O)NC(C)(C)c1ccc(F)cc1 (single isomer, unassigned) [Example 182]
20000	50.1	501	CC[C@@H](CN1CCC1)C(=O)NC(C)(C)c1ccc(F)cc1 (single isomer, unassigned) [Example 183]
2000	0.631	15.8	CC[C@H](CN1CCC1)C(=O)NC(C)(C)c1cccc(F)c1 (single isomer, unassigned) [Example 184]
1580	0.794	20	CC[C@@H](CN1CCC1)C(=O)NC(C)(C)c1ccc(C)cc1 (single isomer, unassigned) [Example 187]
3160	2	20	O=C(CCN1CCC1)NC(c1ccc(F)cc1)C(F)(F)F (single isomer, unassigned) [Example 190]
2510	2	10	O=C(CCN1CCC1)NC(c1cccc(Cl)c1)C(F)(F)F (single isomer, unassigned) [Example 191]
31600	15.8	126	O=C(CCN1CCC1)NC(c1cccc(Cl)c1)C(F)(F)F (single isomer, unassigned) [Example 192]
31600	15.8	200	O=C(CCN1CCC1)NC(c1cccc(F)c1)C(F)(F)F (single isomer, unassigned) [Example 193]
7940	6.31	20	O=C(CCN1CCCC1)N[C@H](c1cccc(Cl)c1)C(F)F (single isomer, unassigned) [Example 198]
5010	2	25.1	CC[C@@H](CN1CCC1)C(=O)NC(C)(C)c1ccccc1F (single isomer, unassigned) [Example 200]
